Measured values taken from patent US10016515B2, “DMA, a bis-benzimidazole, confers radioprotection to the intestine via Akt/NFκB dual pathway activation” (Jawaharlal Nehru University, priority 2016, dated 2018).

Experiments:
[1] = system: Balb/c mice spleen and small intestine; assay: BrdU and IL6 immunohistochemistry; assay type: in vivo, mouse
Experimental: Spleen cell survival was determined 3 days after irradiation by 5-bromo-2′-deoxyuridine (BrdU, i.p., 100 mg/kg) to each mouse 2 h before euthanasia. Similarly small intestine was checked for IL6 expression. BrdU and IL6 immunohistochemistry (IHC) were performed as per standard protocol against BrdU and IL6. 3,3,-diaminobenzidine (DAB) was used to detect antigen-antibody binding. Counterstaining was done with hematoxylin, and after dehydration, slides were mounted with glycerogelatin.

[2] = system: Akt/NFκB pathway in HEK293, MRC5 and A549 cell lines; assay: Immunoblot analysis in cell lines; assay type: cell-based, human
Experimental: HEK293, MRC5 and A549 cells were treated as indicated earlier. The cell pellet was resuspended in RIPA buffer and allowed to swell on ice for 30 min. Balb/c intestine tissue and tumor tissues were homogenized in RIPA buffer. Protein concentration was determined using Bradford's Assay (Bangalore Genei). Western blot was performed using standard protocols with primary antibodies against Akt, pAkt (Ser-473), […], mTOR, p70, Bad, PTEN, IKKα/β, p IKKα/β, p53, Bcl2, GAPDH, and NFκB (p65) (Cell Signalling) and horseradish peroxidase-conjugated mouse or rabbit secondary antibody (Abcam). Signals were detected using enhanced chemiluminescence (ECL system, Pierce) on X-ray film.
Cells after treatment were collected by trypsinization and washed twice with ice-cold PBS. Cell pellet was resuspended in five volumes of cytoplasmic extraction buffer (CEB) [10 mM HEPES pH 7.9, 10 mM KCl, 0.1 mM EDTA, 0.3% NP-40 and 1× protease inhibitor cocktail] to the size of cell pellet for 5 min. Protein solution was centrifuged at 3000 rpm for 5 min at 4° C. and supernatant was harvested as cytoplasmic extract.
The cell pellet obtained after extraction of cytoplasmic proteins was resuspended again in CEB without NP-40. It was centrifuged at 3000 rpm for 5 min at 4° C. and supernatant was discarded. Equal volume of nuclear extraction buffer (NEB) [20 mM HEPES pH7.9, 0.4M NaCl, 1 mM EDTA, 25% Glycerol, and 1× protease inhibitor cocktail] was added to nuclear pellet and incubated on ice for 10 min. Supernatant was harvested as nuclear protein extract.

[3] = system: Akt in MRC5 and A549 cells; assay: Akt kinase assay in cell lines; assay type: cell-based, human; details: DMA+Radiation vs control and radiation
Experimental: Akt kinase activity was determined using Akt Kinase Assay Kit (Nonradioactive) (Cell Signaling Technology, Cat. #9840) following the manufacturer's instructions.

[4] = DMA+Radiation vs irradiated mice
[5] = DMA+Radiation, all three cell lines

COc1ccc(-c2nc3cc(-c4nc5cc(N6CCN(C)CC6)ccc5[nH]4)ccc3[nH]2)cc1OC [DMA, 5-(4-methylpiperazin-1-yl)-2-[2′-(3,4-dimethoxyphenyl)-5′-benzimidazolyl]benzimidazole]
IL6 level in small intestine (IHC) ([1]; DMA only treated mice): almost equal to control mice | BrdU-positive cells (IHC) [1, 4]: more BrdU-positive cells | IL6 level in small intestine (IHC) [1, 4]: higher level of IL6 | NFκB p65 level ([2]; DMA+Radiation vs control and irradiated): increased level | Level of phosphorylated Akt (Ser-473) ([2]; DMA+Radiation, HEK293, MRC5 and A549): increased | IκBα protein level [2, 5]: decrease | Phosphorylation of IKKα and IKKβ [2, 5]: higher | NFκB p65 in cytoplasm and nucleus ([2]; HEK293 cytoplasmic and nuclear extract, DMA prior to radiation): higher expression | PTEN, mTOR and p70 levels ([2]; all three cell lines): could not address any significant changes | Phosphorylated GSK3β ([2]; prior DMA treatment to radiation, all three cell lines): increase | Akt kinase activity [3]: higher Akt kinase activity
